± gives the standard deviation of the averaged measurements.

Common to all, as to experiment: LOEC (log10 uM (lowest observed effect concentration))
Compound in assay [1]: NC(=O)C(F)(F)C(F)(F)C(F)(F)C(F)(F)F [Nonafluoropentanamide]
Here is the method:
(§1)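 BioMAP Diversity Plus panel in human primary cell co-cultures, 4 concentrations in duplicate blinded samples. Responses are log10 fold change versus DMSO control, processed with tcpl v2.1.0. A hit is called when responses at any concentration exceed the cutoff (the larger of 3*bmad or log10(1.2)); the lowest observed effect concentration (modl_ga, log10 uM) is reported for hits.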

Compound in assay [2]: C=CC(=O)OCC(F)(F)C(F)(F)C(F)(F)COC(=O)C=C [1H,1H,5H,5H-Perfluoro-1,5-pentanediol diacrylate]
Here is the method: as §1

Compound in assay [3]: COC(=O)C(F)(F)C(F)(F)OC(F)(C(F)(F)F)C(F)(F)OC(F)=C(F)F [Methyl perfluoro(3-(1-ethenyloxypropan-2-yloxy)propanoate)]
As to the method:
as §1

Compound in assay [4]: O=S(=O)(Cl)C(F)(F)C(F)(F)C(F)(F)C(F)(F)C(F)(F)C(F)(F)C(F)(F)C(F)(F)F [Perfluoro-1-octanesulfonyl chloride]
As to the method:
as §1

Compound in assay [5]: O=C(O)C(F)(F)C(F)(F)C(F)(F)C(F)(F)C(F)(F)C(F)(F)C(F)(F)C(F)(F)C(F)(F)C(F)F [11-H-Perfluoroundecanoic acid]
As to the method: as §1

Compound in assay [6]: NS(=O)(=O)C(F)(F)C(F)(F)C(F)(F)C(F)(F)C(F)(F)C(F)(F)F [Perfluorohexanesulfonamide]
As to the method:
as §1

Compound in assay [7]: O=S(=O)(O)CCC(F)(F)C(F)(F)C(F)(F)C(F)(F)C(F)(F)C(F)(F)F [6:2 Fluorotelomer sulfonic acid]
As to the method:
as §1

Compound in assay [8]: FC(F)(F)C(F)(F)C(F)(F)C(F)(F)C(F)(F)C(F)(F)C(F)(F)I [1-Iodopentadecafluoroheptane]
Here is the method:
as §1

Consider 3C Thrombomodulin down, for which the “LOEC (log10 uM)” value in assay [1] was 1.31 ± 0.66.

On to BE3C tPA down, for which the “LOEC (log10 uM)” value in assay [2] came out at 1.3; in assay [3], 0.0731 ± 0.32; in assay [4] it was 1.78; in assay [5], 1.3; in assay [6], 1.78.

As to LPS IL8 up, the “LOEC (log10 uM)” value in assay [4] was 1.78; in assay [7], 1.54 ± 0.34.

In the case of MyoF ACTA1 down, the “LOEC (log10 uM)” value was found to be 0.301 in assay [8], 0.845 in assay [2] and 1.54 ± 0.34 in assay [5].

In the case of MyoF CollagenI down, the entries for the “LOEC (log10 uM)” value in assay [8], in assay [2] and in assay [5] were 0.845, 1.3 and 1.3, respectively.

For the test system MyoF CollagenIII down, the “LOEC (log10 uM)” value stood at 0.845 in assay [8], 1.3 in assay [2], 1.78 in assay [4] and 1.3 in assay [5].

For MyoF CollagenIV up, the “LOEC (log10 uM)” value in assay [8] worked out at 0.845; in assay [4] it was 1.78; in assay [5] it was 1.07 ± 0.32; in assay [6] it was 1.3.

For MyoF MMP1 up, the “LOEC (log10 uM)” value worked out at 0.573 ± 0.39 in assay [8] and 0.845 in assay [2].

As for MyoF SRB down, the “LOEC (log10 uM)” value came to 0.845 in assay [8], 1.3 in assay [2], 1.3 in assay [5] and 1.78 in assay [6].

Regarding MyoF VCAM1 down, the “LOEC (log10 uM)” value in assay [8] amounted to 0.573 ± 0.39; in assay [2], 0.845; in assay [5], 1.3.

Values taken from the supplement of paper PMC10331698.
